Assay results published in patent US20170071975A1, “COMPOSITIONS AND METHODS FOR TREATING DEPRESSIVE DISORDERS” (Steerwasher, LLC, priority 2014, published 2017).

Legend:
[1] = test system: patients with treatment-resistant depression; test: Blinded, randomized placebo-controlled crossover trial; 21-point Hamilton Depression Rating Scale (HDRS/HRDS); format: in vivo, human
From the text: (§1) Primary endpoint was the change on the 21-point Hamilton Depression Rating Scale (HRDS).
(§2) This study was designed as a randomized, placebo-controlled crossover pilot clinical trial. […] The order of the session was randomly assigned by a random number generator. Other than the gas mixture administered, both sessions were indistinguishable from each other in setting, setup, and monitoring.
Patients were recruited from an existing database of treatment-resistant depression patients administered by the Washington University Department of Psychiatry as well as from the “Volunteers for Health” patient pool within the Washington University School of Medicine. […] Patients were instructed not to suspend their standard of care treatment for major depression. Patients were required to maintain a stable medication regiment without changes for 4 weeks prior to initiation of the study and continue on the same dose throughout.
(§3) The gas mix was administered via a standard anesthesia facemask through tubing connected to an anesthesia machine. A small sample connector line was inserted into the facemask allowing the measurement of inhaled and exhaled gas concentrations. Total gas flow was between 4-8 L/min. Patients were monitored during and after the treatment according to American Society of Anesthesiologists standard which includes continuous 3-lead ECG, pulsoximetry, non-invasive blood pressure and end-tidal CO2 under the supervision of an attending-level anesthesiologists. After the one-hour treatment session, patients were transferred and monitored for 2 hours. A study team physician determined if the patients met criteria for discharge before patients were discharged.
(§4) Outcomes were assessed at six time points for each patient (three per session; two sessions): within each session at baseline, 2 hours, and 24 hours after treatment. Primary study endpoint was the change on the 21-point Hamilton Depression Rating Scale (HDRS). Secondary endpoints included a change on the Quick Inventory of Depressive Symptoms Self Report (QIDS-SR) scale. At baseline, the Brief Psychiatric Rating Scale (BPRS) was also administered. Psychiatric safety endpoints were assessed via standard scales for psychosis and the Columbia suicide scale. Other safety endpoints included cardiovascular, respiratory and central nervous system adverse events determined by hemodynamic and respiratory monitoring.
The primary outcome was analyzed with a mixed effects repeated measures linear model that included three interactions (treatment; time; randomization group) using restricted maximum likelihood estimation.
For the analysis of paired data, such as the levels of HRDS, we used the Wilcoxon signed-rank test. To compare the rates of treatment responses and remissions between the two treatments and using the paired data structure, an exact binomial test was used (and corresponding odds ratios calculated) as the number of discordant pairs was <20. Data are presented as mean±SD or 95% confidence intervals, or as median and interquartile range. Because this is the first in-human patient pilot study, no prior knowledge existed for adequate sample size determination. […] JMP Pro 11.1 and SAS 9.3 (SAS Institute, Cary, N.C.), as well as Prism 6.04 (GraphPad Software, Inc., La Jolla, Calif.) were used for the statistical analysis and graphing.

[2] = test system: patients with treatment-resistant depression; test: Same crossover trial; Quick Inventory of Depressive Symptoms Self Report (QIDS-SR) scale; format: in vivo, human; conditions: Table 4
Protocol: as §1, §2, §3, §4

[3] = test system: patients with treatment-resistant depression; parameters: species or system human; conditions: in vivo
Protocol: as §3
as §4, with “monitoring. Nitrous oxide-induced inactivation of vitamin B12 was determined by measurement of plasma total homocysteine before and after treatment.” for “monitoring.”

[4] = 24 hours after treatment, HRDS levels

## [N-]=[N+]=O [nitrous oxide]
[1]; [4]
  Change in Level of Depression Severity: Better, 1 level (patients): 7/20
  Change in Level of Depression Severity: Better, 1 level (percent): (35%)
  Change in Level of Depression Severity: Better, 2 levels (patients): 3/20
  Change in Level of Depression Severity: Better, 2 levels (percent): (15%)
  Change in Level of Depression Severity: Better, 3 levels (patients): 3/20
  Change in Level of Depression Severity: Better, 3 levels (percent): (15%)
  Change in Level of Depression Severity: Better, 4 levels (patients): 1/20
  Change in Level of Depression Severity: Better, 4 levels (percent): (5%)
  Change in Level of Depression Severity: Neutral, 0 (patients): 6/20
  Change in Level of Depression Severity: Neutral, 0 (percent): (30%)
  Change in Level of Depression Severity: Worse, 1 level (patients): 0
[1]; 24 hours after treatment, full cohort (20 patients), 50% nitrous oxide/50% oxygen for 1 hour, compared to baseline and placebo
  mean change in HDRS score: −5.5 points
[1]; 24 hours, 20 patients
  full remission rate (HRDS <7 points): 15%
  treatment response rate (reduction >50% on the HRDS): 20%
[1]; 24 hours, first treatment session only (10 patients who received nitrous oxide first)
  mean reduction of HRDS: −8.6 points
[1]; 24 hours, out of twenty patients, five severity levels
  patients with at least a 2-level improvement of depression severity on the HRDS: 7 patients
[1]; 24 hours, twenty patients
  patients with at least a 2-level improvement of depression severity on the HRDS, percent: 35%
[1]; after a single, one-hour treatment with 50% nitrous oxide
  duration of antidepressant effects: at least 24 hours
[1]; full cohort
  mean reduction in depressive symptoms on HRDS: 5.5 points
[1]; ten patients who received the nitrous oxide treatment first
  mean reduction in depressive symptoms on HRDS: 8.6 points
[2]
  response on the QIDS scale: change 0 (percent): 50%
  response on the QIDS scale: change of 1 level, first arrow (P00003, presumably worse) (percent): 10%
  response on the QIDS scale: change of 1 level, second arrow (P00004, presumably better) (percent): 15%
  response on the QIDS scale: change of 2 levels, second arrow (P00004, presumably better) (percent): 25%
[3]; human, 1 h
  Adverse Event: Anxiety: 2
  Adverse Event: Anxiety (percent): (10%)
  Adverse Event: Claustrophobia: 1 no.
  Adverse Event: Claustrophobia (percent): (5%)
  Adverse Event: Dizziness/Lightheadedness: 1 no.
  Adverse Event: Dizziness/Lightheadedness (percent): (5%)
  Adverse Event: Headache: 2 no.
  Adverse Event: Headache (percent): (10%)
  Adverse Event: Hypercapnia: 0
  Adverse Event: Hyperventilation: 1 no.
  Adverse Event: Hyperventilation (percent): (5%)
  Adverse Event: Nausea and vomiting: 3 no.
  Adverse Event: Nausea and vomiting (percent): (15%)
  Adverse Event: Numbness/Paresthesia: 2
  Adverse Event: Numbness/Paresthesia (percent): (10%)
  Adverse Event: Panic Attack: 1
  Adverse Event: Panic Attack (percent): (5%)
  Adverse Event: Regurgitation: 1 no.
  Adverse Event: Regurgitation (percent): (5%)
[3]
  course of adverse events: temporary and resolved shortly after completion
  patients in whom the treatment had to be interrupted or discontinued due to adverse events: five
  patients who completed the full 60-minute treatment: Fifteen
  psychotomimetic side effects (delusion, hallucination): appeared to be devoid of psychotomimetic side effects
